Test results reported in patent US20140329863A1 (priority 2011, published 2014).
Values after ≈ are worked out from the molar mass of the structure shown. Read-outs that look alike come from different tables or passages of the source.

Columns and labels:
[1] = Single-dose pharmacokinetic studies in female FVB mice (PO, IV, IP); assay type: in vivo, mouse; settings: single 40 mg/kg oral dose
Procedure: For in-vivo pharmacokinetic studies, compounds were dissolved in a formulation containing 20% propylene glycol, 5% ethanol, 5% labrosol, and 70% polyethylene glycol 400 (PEG400) and administered by oral gavage to female FVB mice weighing ˜25 g. At specified time points after dosing (0.25, 0.5, 1, 2, 4, 6, and 24 h), 2 animals were euthanized by CO2, and ˜1 mL blood (by cardiac puncture) and brain samples were collected. The heparinized blood samples were centrifuged to obtain plasma, which was stored at −80° C. until analysis. Brain samples were weighed, diluted […] with water, and then homogenized using a Precellys 24 tissue homogenizer. Brain homogenates (20% wt/vol) were stored at −80° C. until analysis. Pharmacokinetic protocols involving animals were all reviewed and approved by the UCSF institutional animal care and use committee (IACUC).
(§1) Plasma and brain homogenate samples were extracted using a protein-precipitation method and analyzed by specific LC/MS/MS methods developed for each compound dosed in vivo. The analytical method accuracy and precision were monitored by analyzing quality control (QC) samples that were prepared and treated using the same methods as calibration standards for the plasma or brain homogenate samples.
The data were used to calculate the area under the concentration-time curve (AUClast) by noncompartmental analysis with sparse sampling performed using Phoenix WinNonlin 6.1 software (Pharsight, Mountain View, Calif.).
Pharmacokinetic protocols employing mice were reviewed and approved by the UCSF Institutional Animal Care and Use Committee (IACUC). Female FVB mice, weighing approximately 25 g, were used for all in vivo pharmacokinetic studies. Mice were housed with free access to food and water, and were maintained on 12-h light/dark cycles for 1 week before dosing studies were initiated.
For the single-dose of 40 mg/kg, compounds were dissolved in a formulation containing 5% propylene glycol, […] α-tocopheryl polyethylene glycol 1000 succinate (TPGS) and 70% polyethylene glycol 400 (PEG400), and administered by oral gavage. Two animals per time point were used. At specified time points after dosing (0.5, 1, 2, 4, 6, and 24 h), animals were euthanized by CO2, and blood for plasma (by cardiac puncture) and brain samples were collected. The heparinized blood samples were centrifuged to obtain plasma. Brain samples were weighed, diluted 10-fold with water, and then homogenized using a Precellys 24 tissue homogenizer. The brain and plasma samples were flash-frozen on dry ice and then stored at −80° C. until analysis. For the single-dose administration at 10 mg/kg, compounds were dissolved in a formulation containing 20% propylene glycol, 5% ethanol, 5% labrosol, and 70% PEG400, and administered by oral gavage. Two animals per time point were used. At specified time points after dosing (0.25, 0.5, 1, 2, 4, 6, and 24 h), animals were euthanized by CO2, and blood for plasma (by cardiac puncture) and brain samples were collected. The heparinized blood samples were centrifuged to obtain plasma. Brain samples were weighed, diluted five-fold with water, and then homogenized using a Precellys 24 tissue homogenizer. The brain and plasma samples were flash-frozen on dry ice and then stored at −80° C. until analysis.
Compounds were administered through tail vein injection. Two animals per time point were used. At specified time points after dosing (5 min, 0.25, 0.5, 1, 2, 4, and 6 h), animals were euthanized by CO2. Blood and brain samples were obtained and processed as described above for the oral dosing at 40 mg/kg.
as §1, with “by” for “and treated using”, “as” for “as calibration standards for”, “samples. […]” for “samples.”

[2] = tested on: PrP^Sc in dividing ScN2a-cl3 cells; assay type: cell-based, mouse; parameters: Dividing ELISA pEC50 (μM) 1st Expt. / Dividing ELISA pEC50 (μM) 2nd Expt. / Dividing ELISA pEC50 (μM) 3rd Expt. / Dividing ELISA pEC50 (μM) Mean: unit not given here
[3] = Single-dose pharmacokinetics in FVB mice (oral gavage, IV); settings: single oral dose, FVB mice, brain
[4] = not given; remark: listed apart in the source
Binding in human plasma = settings: 1 μM; mean ± SD, n = 3 (warfarin n = 2)
[5] = tested on: PrP^Sc in nondividing ScN2a-cl3 cells; assay type: cell-based, mouse; settings: read-out: Non-Dividing ELISA EC50 (μM) Mean (n = 3); ScN2a-c13 non-dividing cells; mean n = 3
N2a-cl3 cells [6] = settings: read-out: Dividing Calcein EC50 (μM) Mean (n = 3)
MDCK-MDR1 cells = test: Permeability in MDCK-MDR1 cells; settings: MDR1-MDCK cell monolayers; for Permeability PA→B: apical to basal; for Permeability PB→A: basal to apical
[7] = Hepatic microsomal stability, rat; settings: […]
[8] = Multiple-dose (three-day) pharmacokinetic studies in FVB mice, drug in liquid diet; assay type: in vivo, mouse; settings: three days in liquid diet, higher doses (up to 210 mg/kg/day)
Procedure: Aminothiazole analog (e.g., 4.5 g of 27) was added to 15 mL of pure PEG400, vortexed and sonicated to ensure dissolution, then stored at −4° C. until needed. This highly concentrated PEG400 solution was subsequently diluted to final dosing concentrations, where the volume added was composed of homogenized solid rodent feed, cocoa (taste masking agent), and water. Wild-type FVB mice weigh ˜25 gm and typically drink 20 mL of liquid diet per day, allowing an estimate of daily drug consumption. A single dosing cohort consisted of three mice in a shared cage and liquid diet was provided at the start of the study in sufficient volume to last for the entire three-day trial (˜200 mL). At the end of the three-day dosing period, animals were euthanized by CO2, followed by collection of plasma (cardiac puncture) and removal of whole brain. Heparinized blood was centrifuged to separate plasma and both plasma and brain samples were stored at −80° C. prior to analysis. Plasma samples were prepared for analysis by precipitating proteins and reconstituting the remaining fraction with HPLC mobile phase. Brain samples were typically prepared by four-fold dilution with water after weighing, then homogenized using bead-beater or Polytron™ resulting in a highly concentrated solution that was further diluted with mobile phase as appropriate in preparation for bioanalytical analysis using LC-MS. Analysis was by LC-MS (Shimadzu dual-HPLC pumps, C18 analytical column, with detection using an Applied Biosystems API-4000 triple quadrupole mass spectrometer).
Ten compounds were selected from among the 34 2-AMTs for three-day multiple-dose PK studies at PO doses ranging from 40-210 mg/kg. Selection was based on diversity in potency, chemical structure, and a range of physicochemical properties. We used a liquid diet to facilitate easy drug administration, as well as serve as the daily source of all water and food. This approach was chosen because the mouse bioassay studies that would be used to assess drug effects on survival would be expected to run for 110 to 400 days, or more; gavage dosing for such a long period is not feasible and more stressful to mice. For the multiple-dose PK studies, 4.5 g of the 2-AMT analogs was added to 15 mL of pure PEG400, vortexed and sonicated to ensure dissolution, then stored at −4° C. until needed. This highly concentrated PEG400 solution was subsequently diluted to final dosing concentrations and added to the rodent liquid diet, cocoa (taste-masking agent), and water.
Wild-type FVB mice weigh ˜25 g and typically drink 20 mL of liquid diet per day, allowing an estimate of daily drug consumption. A single dosing cohort consisted of three mice in a shared cage and liquid diet was provided at the start of the study in sufficient volume (˜200 mL) to last for the entire three-day period. At the end of the dosing period, animals were euthanized by CO2, followed by collection of plasma (cardiac puncture) and removal of whole brain. Samples were processed and stored as described above for the 10 mg/kg single-dose studies.
Plasma and brain homogenate samples were extracted using a protein-precipitation method and analyzed by specific LC/MS/MS methods developed for each compound dosed in vivo. The analytical method accuracy and precision were monitored by analyzing quality control (QC) samples that were prepared by the same methods as the plasma or brain homogenate samples. The brain and plasma concentration data were used to calculate the maximal concentration (Cmax), area under the concentration-time curve (AUClast), and absolute bioavailability (% F) by noncompartmental analysis with sparse sampling performed using Phoenix WinNonlin 6.1 software (Pharsight, Mountain View, Calif.).

[9] = tested on: PrP^Sc in dividing ScN2a-c13 cells; settings: read-out: EC50 (ELISA), reduction of PrP^Sc load; dividing ScN2a-c13 cells
[10] = […]
N2a-cl3 cells [11] = test: cells; settings: Mus musculus, N2a-cl3, read-out: Dividing Calcein EC50 (μM) Mean (n = 3)
[12] = Table 29, 2-AMT analogs tested for potency, usually n = 3 or more
[13] = pH 1.2, simulated gastric fluid
[14] = ScN2a-cl3 dividing cells, 1st determination
[15] = ScN2a-cl3 dividing cells, 2nd determination
[16] = ScN2a-cl3 dividing cells, 3rd determination
[17] = ScN2a-cl3 dividing cells, mean of three determinations

## Cc1ccnc(Nc2nc(-c3ccccc3O)cs2)c1 [IND48, 2-[2-(4-Methyl-pyridin-2-ylamino)-thiazol-4-yl]-phenol]
[1]
  AUC0->last, brain exposure: lowest AUClast values
[2]; AMT analogs tested for potency
  EC50: > 10 µM
[2]; [12]
  EC50: > 10 µM
other
  melting point: 249 to 250 °C
[3]
  Brain exposure (AUClast) ranking: lowest AUClast values

## Cc1ccnc(Nc2nc(-c3ccc(O)cc3)cs2)c1 [IND49, 4-[2-(4-Methyl-pyridin-2-ylamino)-thiazol-4-yl]-phenol]
[1]
  AUC0->last, brain exposure: lowest AUClast values
[2]; AMT analogs tested for potency
  EC50: > 10 µM
[2]; [12]
  EC50: > 10 µM
[3]
  Brain exposure (AUClast) ranking: lowest AUClast values

## Cc1cccc(Nc2nc(-c3ccc(-c4ccnc(N(C)C)c4)cc3)cs2)n1 [IND-0116095]
[4]
  Analiza solubility (μM) pH 1.2: >150 μM
physchem; [13]
  solubility: > 150 µM
physchem; pH 7.4, aqueous buffer
  solubility: 1.6 µM (≈ 0.62 µg/mL)

## Cc1cccc(Nc2nc(-c3ccc(-c4ccnc(OC(C)C)c4)cc3)cs2)n1 [IND-0116096]
[4]
  Analiza solubility (μM) pH 1.2: >150 μM
physchem; [13]
  solubility: > 150 µM
physchem; pH 7.4, aqueous buffer
  solubility: 3.1 µM (≈ 1.25 µg/mL)

## COCCOc1cc(-c2ccc(-c3csc(Nc4cccc(C)n4)n3)cc2)ccn1 [IND-0116099]
[4]
  Analiza solubility (μM) pH 7.4: <0.5 μM
physchem; [13]
  solubility: 126 µM (≈ 52.5 µg/mL)
physchem; pH 7.4, aqueous buffer
  solubility: < 0.5 µM

## Cc1cccc(Nc2nc(-c3ccc(-c4ccnc(OCC#N)c4)cc3)cs2)n1 [IND-0116138]
[4]
  Analiza solubility (μM) pH 1.2: >150 μM
  Analiza solubility (μM) pH 7.4: <0.4 μM
physchem; [13]
  solubility: > 150 µM
physchem; pH 7.4, aqueous buffer
  solubility: < 0.4 µM

## CN(C)c1cccc(Nc2nc(-c3ccc(-c4ccccc4)cc3)cs2)n1 [IND-0116142]
[4]
  Analiza solubility (μM) pH 7.4: <0.5 μM
physchem; [13]
  solubility: 16.1 µM (≈ 6 µg/mL)
physchem; pH 7.4, aqueous buffer
  solubility: < 0.5 µM

## CC(=O)CC(c1ccccc1)c1c(O)c2ccccc2oc1=O (stereo not drawn) [Warfarin, warfarin, reference compound]
Binding in human plasma
  Unbound (%), Human Plasma: 0.68 ± 0.0023%

## Cc1ccc(Nc2nc(-c3ccncc3)cs2)nc1 [compound 23]
[2]; ScN2a-cl3 cells, read-out: Antiprion activity ScN2a-cl3 EC50
  EC50: 1.57 µM
[2]; [14]
  Dividing ELISA pEC50 (μM) 1st Expt.: 5.95
[2]; ScN2a-cl3 dividing cells, 1st determination, read-out: Dividing ELISA EC50 (μM) 1st Expt.
  EC50: 1.12 µM
[2]; [15]
  Dividing ELISA pEC50 (μM) 2nd Expt.: 5.76
[2]; ScN2a-cl3 dividing cells, 2nd determination, read-out: Dividing ELISA EC50 (μM) 2nd Expt.
  EC50: 1.75 µM
[2]; [16]
  Dividing ELISA pEC50 (μM) 3rd Expt.: 5.73
[2]; ScN2a-cl3 dividing cells, 3rd determination, read-out: Dividing ELISA EC50 (μM) 3rd Expt.
  EC50: 1.85 µM
[2]; [17]
  Dividing ELISA pEC50 (μM) Mean: 5.81
[2]; ScN2a-cl3 dividing cells, mean of three determinations, read-out: Dividing ELISA EC50 (μM) Mean
  EC50: 1.57 µM
[5]
  EC50: > 32 µM
N2a-cl3 cells [6]
  EC50: > 32 µM
MDCK-MDR1 cells
  Permeability PA→B: 32.6 10^−6 cm/sec
  Permeability PB→A: 42.3 10^−6 cm/sec
[7]
  Microsome stability T1/2: 0.333 h

## Cc1ccc(Nc2nc(-c3cc(-c4ccccc4)no3)cs2)nc1 [compound 27, (5-Methylpyridin-2-yl)-[4-(3-phenylisoxazol-5-yl)-thiazol-2-yl]-amine]
[8]
  mean brain concentration in excess of EC50: ≤ 25 fold
[2]; [14]
  Dividing ELISA pEC50 (μM) 1st Expt.: 5.96
[2]; [15]
  Dividing ELISA pEC50 (μM) 2nd Expt.: 6.13
[2]; [16]
  Dividing ELISA pEC50 (μM) 3rd Expt.: 6.00
[2]; [17]
  Dividing ELISA pEC50 (μM) Mean: 6.03
[2]; read-out: Antiprion activity ScN2a-cl3 EC50, ScN2a-cl3 cells
  EC50: 0.94 µM
[2]; read-out: Dividing ELISA EC50 (μM) 1st Expt., ScN2a-cl3 dividing cells, 1st determination
  EC50: 1.09 µM
[2]; read-out: Dividing ELISA EC50 (μM) 2nd Expt., ScN2a-cl3 dividing cells, 2nd determination
  EC50: 0.747 µM
[2]; read-out: Dividing ELISA EC50 (μM) 3rd Expt., ScN2a-cl3 dividing cells, 3rd determination
  EC50: 0.994 µM
[2]; read-out: Dividing ELISA EC50 (μM) Mean, ScN2a-cl3 dividing cells, mean of three determinations
  EC50: 0.945 µM
[5]
  EC50: > 32 µM
[9]
  EC50: 940 nM
[10]
  metabolic stability (in words): excellent stability
N2a-cl3 cells [11]
  EC50: > 32 µM
MDCK-MDR1 cells
  Permeability PA→B: 6.8 10^−6 cm/sec
  Permeability PB→A: 8.3 10^−6 cm/sec
[7]
  Microsome stability T1/2: 2.52 h
